One may read the IC50 as the concentration that gives 50% inhibition.

The target of one experiment is full length USP7 (Homo sapiens (Human), UniProt Q93009). The experiment is described as follows: Ub-AMC enzymatic assay with full-length USP7. The experiment is classed as biochemical. The settings on record: Table 1; 6 hours pre-incubation, Ub-AMC; read-out: IC50 (nM), USP7 activity in USP7 assay. How it is done: Both constructs were overexpressed in E. coli BL21 (DE3). Cells were grown at 37° C. to an OD of 0.9, cooled to 16° C., induced with 500 μM isopropyl-1-thio-D-galactopyranoside (IPTG), incubated overnight at 16° C., collected by centrifugation, and stored at −80° C. Cell pellets were sonicated in lysis buffer (25 mM Tris pH 8, 1 M NaCl, and 10 mM BME) supplemented with 10 μg/ml phenylmethanesulfonylfluoride (PMSF) and the resulting lysate was centrifuged at 30,000×g for 40 min. Ni-NTA beads (Qiagen) were mixed with lysate supernatant for 2 hours, and washed with lysis buffer supplemented with 25 mM imidazole. The bound protein was eluted with lysis buffer supplemented with 300 mM imidazole. The sample was then concentrated to 1 ml (30 kDa concentrator; Amicon Ultra, Millipore), and run on a Superdex 200 (GE healthcare) in buffer containing 25 mM HEPES pH 7.5, 200 mM NaCl, and 1 mM DTT. Fractions were pooled, concentrated and frozen at −80° C.
Sequence of full length USP7 (Q93009 whole entry): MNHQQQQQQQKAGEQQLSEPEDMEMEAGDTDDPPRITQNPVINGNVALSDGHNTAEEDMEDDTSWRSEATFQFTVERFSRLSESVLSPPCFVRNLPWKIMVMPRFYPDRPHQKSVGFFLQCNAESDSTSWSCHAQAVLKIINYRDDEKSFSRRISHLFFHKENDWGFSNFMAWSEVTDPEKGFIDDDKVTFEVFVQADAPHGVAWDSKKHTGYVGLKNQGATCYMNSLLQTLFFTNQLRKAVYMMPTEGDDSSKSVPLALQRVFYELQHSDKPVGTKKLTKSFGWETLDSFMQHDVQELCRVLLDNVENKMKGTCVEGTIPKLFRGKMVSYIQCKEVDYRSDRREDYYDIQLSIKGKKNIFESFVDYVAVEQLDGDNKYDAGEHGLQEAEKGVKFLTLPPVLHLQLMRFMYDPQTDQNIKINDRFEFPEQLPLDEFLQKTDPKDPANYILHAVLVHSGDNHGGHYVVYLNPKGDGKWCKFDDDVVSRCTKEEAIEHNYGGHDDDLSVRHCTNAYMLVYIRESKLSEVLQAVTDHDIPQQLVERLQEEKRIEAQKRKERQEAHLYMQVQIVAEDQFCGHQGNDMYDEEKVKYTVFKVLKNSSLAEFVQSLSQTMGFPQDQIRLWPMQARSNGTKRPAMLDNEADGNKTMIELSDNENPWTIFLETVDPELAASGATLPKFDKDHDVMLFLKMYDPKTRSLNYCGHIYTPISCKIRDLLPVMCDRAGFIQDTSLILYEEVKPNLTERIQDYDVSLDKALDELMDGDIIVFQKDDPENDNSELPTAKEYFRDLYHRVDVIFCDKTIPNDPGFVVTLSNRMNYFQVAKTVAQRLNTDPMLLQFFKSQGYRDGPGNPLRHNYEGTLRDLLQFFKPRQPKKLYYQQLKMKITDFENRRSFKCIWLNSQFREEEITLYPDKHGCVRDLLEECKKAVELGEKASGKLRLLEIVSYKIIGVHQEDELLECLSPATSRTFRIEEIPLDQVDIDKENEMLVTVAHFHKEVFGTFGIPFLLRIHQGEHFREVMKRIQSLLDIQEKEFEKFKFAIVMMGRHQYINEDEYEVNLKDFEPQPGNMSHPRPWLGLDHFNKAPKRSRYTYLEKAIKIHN
Full length USP7 was tested for its activity in Ubiquitin-AMC assay in presence or absence of inhibitors. USP7 (5 nM) was pre-incubated for 6 hours at room temperature with different concentrations of inhibitors or DMSO as a control in 50 mM HEPES pH 7.5, 0.5 mM EDTA, 11 μM ovalbumin, and 5 mM DTT. Ubiquitin-AMC (Boston Biochem) was then added to a final concentration of 500 nM. The initial rate of the reaction was measured by collecting fluorescence data at one minute intervals over 30-minute period using a Clariostar fluorescence plate reader at excitation and emission wavelength of 345 and 445 nm respectively. The calculated initial rate values were plotted against inhibitor concentrations to determine IC50s. All the experimental data were plotted using Prism GraphPad. All assays for each compound were performed at least twice for each compound.
Consider `CN(C)CCC(=O)Nc1ccc2c(=O)n(CC3(O)CCN(C(=O)CCCCNC(=O)c4ccc5c(Cl)c6c(nc5c4)CCCC6)CC3)cnc2c1`, for which the IC50 was in the range of 20 to 100 nM. Same read-out and setting: under `O=C(CCN1CCOCC1)Nc1ccc2c(=O)n(CC3(O)CCN(C(=O)CCCCNC(=O)c4ccc5c(Cl)c6c(nc5c4)CCCC6)CC3)cnc2c1` stands 100 to 1000 nM; under `O=C(CCn1ccnc1)Nc1ccc2c(=O)n(CC3(O)CCN(C(=O)CCCCNC(=O)c4ccc5c(Cl)c6c(nc5c4)CCCC6)CC3)cnc2c1`, 20 to 100 nM. Turning to `CN1CCN(CCC(=O)Nc2ccc3c(=O)n(CC4(O)CCN(C(=O)C(CCCNC(=O)c5ccc6c(Cl)c7c(nc6c5)CCCC7)Cc5ccccc5)CC4)cnc3c2)CC1` (centres unmarked), the IC50 is under 20 nM. Take `CN1CCN(CCC(=O)Nc2ccc3c(=O)n(CC4(O)CCN(C(=O)CNC(=O)c5ccc6c(Cl)c7c(nc6c5)CCCC7)CC4)cnc3c2)CC1`: the IC50 is over 1000 nM. Consider `CN1CCN(CCC(=O)Nc2ccc3c(=O)n(CC4(O)CCN(C(=O)CCNC(=O)c5ccc6c(Cl)c7c(nc6c5)CCCC7)CC4)cnc3c2)CC1`, for which the IC50 is 100 to 1000 nM. The same measure, in the same setting: the value for `CN1CCN(CCC(=O)Nc2ccc3c(=O)n(CC4(O)CCN(C(=O)CCCNC(=O)c5ccc6c(Cl)c7c(nc6c5)CCCC7)CC4)cnc3c2)CC1` was 20 to 100 nM; that for `CN1CCN(CCC(=O)Nc2ccc3c(=O)n(CC4(O)CCN(C(=O)CCCCCNC(=O)c5ccc6nc7c(c(Cl)c6c5)CCCC7)CC4)cnc3c2)CC1` was 20 to 100 nM; that for `CN1CCN(CCC(=O)Nc2ccc3c(=O)n(CC4(O)CCN(C(=O)C(CCNC(=O)c5ccc6c(Cl)c7c(nc6c5)CCCC7)Cc5ccccc5)CC4)cnc3c2)CC1` (centres unmarked) was under 20 nM. In the case of `CN1CCN(CCC(=O)Nc2ccc3c(=O)n(CC4(O)CCN(C(=O)C(CCCNC(=O)c5ccc6c(c5)CCCN6C(=O)CCl)Cc5ccccc5)CC4)cnc3c2)CC1` (centres unmarked), the IC50 lay in the range of 20 to 100 nM. The same measure, in the same setting: the value for `C=CS(=O)(=O)N1CCCc2cc(C(=O)NCCCC(Cc3ccccc3)C(=O)N3CCC(O)(Cn4cnc5cc(NC(=O)CCN6CCN(C)CC6)ccc5c4=O)CC3)ccc21` (centres unmarked) was 20 to 100 nM. As for `CN1CCN(CCC(=O)Nc2ccc3c(=O)n(CC4(O)CCN(C(=O)C(CCCNC(=O)c5cnccc5Cl)Cc5ccccc5)CC4)cnc3c2)CC1` (centres unmarked), the IC50 was over 1000 nM. In the case of `CN1CCN(CCC(=O)Nc2ccc3c(=O)n(CC4(O)CCN(C(=O)C(CCCNC(=O)c5ccc6c(Cl)c7c(nc6c5)CCCCC7)Cc5ccccc5)CC4)cnc3c2)CC1` (centres unmarked), the IC50 was under 20 nM.

On to `CN1CCN(CCC(=O)Nc2ccc3c(=O)n(CC4(O)CCN(C(=O)C(CCCNC(=O)c5ccc6c(Cl)c7c(nc6c5)CCC7)Cc5ccccc5)CC4)cnc3c2)CC1` (centres unmarked), for which the IC50 is under 20 nM. On the same count and under the same terms, under `CN1CCN(CCC(=O)Nc2ccc3c(=O)n(CC4(O)CCN(C(=O)C(CCCNC(=O)C5(C#N)CC5)Cc5ccccc5)CC4)cnc3c2)CC1` (centres unmarked) stands 100 to 1000 nM; under `CN1CCN(CCC(=O)Nc2ccc3c(=O)n(CC4(O)CCN(C(=O)C(CCCNC(=O)c5cc(C(=O)CCl)cn5C)Cc5ccccc5)CC4)cnc3c2)CC1` (centres unmarked), over 1000 nM. `CN1CCN(CCC(=O)Nc2ccc3c(=O)n(CC4(O)CCN(C(=O)[C@H](Cc5ccccc5)NC(=O)CNC(=O)c5ccc6c(Cl)c7c(nc6c5)CCCC7)CC4)cnc3c2)CC1`: the IC50 is under 20 nM. `CN1CCN(CCC(=O)Nc2ccc3c(=O)n(CC4(O)CCN(C(=O)[C@H](Cc5ccccc5)NC(=O)CCNC(=O)c5ccc6c(Cl)c7c(nc6c5)CCCC7)CC4)cnc3c2)CC1`: the 50% inhibitory concentration (IC50) is under 20 nM.

With `CN1CCN(CCC(=O)Nc2ccc3c(=O)n(CC4CCN(C(=O)C(CCCNC(=O)c5ccc6c(Cl)c7c(nc6c5)CCCC7)Cc5ccccc5)CC4)cnc3c2)CC1` (centres unmarked), the concentration for half-maximal inhibition (IC50) was over 1000 nM. On the same count and under the same terms, under `CN1CCN(CCC(=O)Nc2ccc3c(=O)n(CC4(O)CCN(C(=O)[C@H](Cc5ccccc5)NC(=O)CN(C)C(=O)c5ccc6c(Cl)c7c(nc6c5)CCCC7)CC4)cnc3c2)CC1` stands under 20 nM. On the same count and under the same terms, under `O=C(CCN1CCOCC1)Nc1ccc2c(=O)n(CC3(O)CCN(C(=O)[C@H](Cc4c[nH]cn4)NC(=O)CNC(=O)c4ccc5c(Cl)c6c(nc5c4)CCCC6)CC3)cnc2c1` stands under 20 nM; under `O=C(CCN1CCOCC1)Nc1ccc2c(=O)n(CC3(O)CCN(C(=O)[C@H](CC4CCCCC4)NC(=O)CNC(=O)c4ccc5c(Cl)c6c(nc5c4)CCCC6)CC3)cnc2c1`, under 20 nM; under `O=C(CCN1CCOCC1)Nc1ccc2c(=O)n(CC3(O)CCN(C(=O)[C@H](Cc4cscn4)NC(=O)CNC(=O)c4ccc5c(Cl)c6c(nc5c4)CCCC6)CC3)cnc2c1`, under 20 nM. Same read-out and setting: the value for `O=C(CCN1CCOCC1)Nc1ccc2c(=O)n(CC3(O)CCN(C(=O)[C@H](Cc4cc(F)cc(F)c4)NC(=O)CNC(=O)c4ccc5c(Cl)c6c(nc5c4)CCCC6)CC3)cnc2c1` was under 20 nM. Regarding `O=C(NCCC[C@@H](Cc1ccccc1)C(=O)N1CCC(O)(Cn2cnc3cc(N4CCOCC4)ccc3c2=O)CC1)c1ccc2c(Cl)c3c(nc2c1)CCCC3`, the IC50 fell in the range of 100 to 1000 nM. Turning to `O=C(CCN1CCOCC1)Nc1ccc2c(=O)n(CC3(O)CCN(C(=O)[C@@H](CCCNC(=O)c4ccc(/C=C/C(=O)N5CCCCC5)nc4)Cc4ccccc4)CC3)cnc2c1`, the 50% inhibitory concentration (IC50) is over 1000 nM. Turning to `CC(C)NC(=O)/C=C/c1ccc(C(=O)NCCC[C@@H](Cc2ccccc2)C(=O)N2CCC(O)(Cn3cnc4cc(NC(=O)CCN5CCOCC5)ccc4c3=O)CC2)cn1`, the IC50 was over 1000 nM. On to `CN(C)C(=O)/C=C/c1ccc(C(=O)NCCC[C@@H](Cc2ccccc2)C(=O)N2CCC(O)(Cn3cnc4cc(NC(=O)CCN5CCOCC5)ccc4c3=O)CC2)cn1`, for which the IC50 is over 1000 nM.

The same experiment, now with this note: Table 2; 6 hours pre-incubation, Ub-AMC; read-out: IC50 (μM), USP7 activity in USP7 assay.
Take `O=C(CCN1CCN(C(=O)c2ccc3c(Cl)c4c(nc3c2)CCCC4)CC1)N1CCC(O)(Cn2cnc3cc(Cl)ccc3c2=O)CC1`: the IC50 lay within 100 to 1000 nM. As for `O=C(CN1CCN(C(=O)c2ccc3c(Cl)c4c(nc3c2)CCCC4)CC1)N1CCC(O)(Cn2cnc3cc(Cl)ccc3c2=O)CC1`, the IC50 lay in the range of 20 to 100 nM. Still for that read-out and setting: under `C#CCNCCCC(Cc1ccccc1)C(=O)N1CCC(O)(Cn2cnc3cc(NC(=O)CCN4CCN(C)CC4)ccc3c2=O)CC1` (centres unmarked) stands 20 to 100 nM; under `C=CS(=O)(=O)NCCCC(Cc1ccccc1)C(=O)N1CCC(O)(Cn2cnc3cc(NC(=O)CCN4CCN(C)CC4)ccc3c2=O)CC1` (centres unmarked), 20 to 100 nM; under `C=CC(=O)NCCCC(Cc1ccccc1)C(=O)N1CCC(O)(Cn2cnc3cc(NC(=O)CCN4CCN(C)CC4)ccc3c2=O)CC1` (centres unmarked), under 20 nM.

For `CN1CCN(CCC(=O)Nc2ccc3c(=O)n(CC4(O)CCN(C(=O)C(CCCNC(=O)c5ccc(/C=C6\CCCCC6=O)cc5)Cc5ccccc5)CC4)cnc3c2)CC1` (centres unmarked), the IC50 fell in the range of 20 to 100 nM.

Still in this experiment, the particulars now being: Table 3; 6 hours pre-incubation, Ub-AMC; read-out: IC50 (μM), USP7 activity in USP7 assay.
On to `O=C(CCN1CCOCC1)Nc1ccc2c(=O)n(CC3(O)CCN(C(=O)[C@H](Cc4ccccc4)NC(=O)COc4cccc5c(Cl)c6c(nc45)CCCC6)CC3)cnc2c1`, for which the half-maximal inhibitory concentration (IC50) was 20 to 100 nM. Consider `O=C(NCCCC(Cc1ccccc1)C(=O)N1CCC(O)(Cn2cnc3cc(OCCN4CCOCC4)ccc3c2=O)CC1)c1ccc2c(Cl)c3c(nc2c1)CCCC3` (centres unmarked), for which the IC50 fell in the range of 20 to 100 nM. For `O=C(CCN1CCOCC1)Nc1ccc2c(=O)n(CC3(O)CCN(C(=O)C(CCCNC(=O)c4ccc5c(Cl)cc(C(F)(F)F)nc5c4)Cc4ccccc4)CC3)cnc2c1` (centres unmarked), the IC50 is 100 to 1000 nM.

Turning to `CN1CCN(CCC(=O)Nc2ccc3c(=O)n(CC4(O)CCN(C(=O)[C@@H](Cc5ccccc5)NC(=O)CNC(=O)c5ccc6c(Cl)c7c(nc6c5)CCCC7)CC4)cnc3c2)CC1`, the IC50 was 20 to 100 nM.

On to `CN1CCN(CCC(=O)Nc2ccc3c(=O)n(CC4(O)CCN(C(=O)[C@@H](Cc5ccccc5)NC(=O)CNC(=O)c5ccc6c(Cl)ccnc6c5)CC4)cnc3c2)CC1`, for which the IC50 fell in the range of 20 to 100 nM. Turning to `O=C(CCN1CCOCC1)Nc1ccc2c(=O)n(CC3(O)CCN(C(=O)[C@H](Cc4ccccc4)n4ccnn4)CC3)cnc2c1`, the IC50 is over 1000 nM. As for `Cc1cc(Cl)c2ccc(C(=O)NCCCC(Cc3ccccc3)C(=O)N3CCC(O)(Cn4cnc5cc(NC(=O)CCN6CCOCC6)ccc5c4=O)CC3)cc2n1` (centres unmarked), the IC50 is over 1000 nM. As to `O=C(CCN1CCOCC1)Nc1ccc2c(=O)n(CC3(O)CCN(C(=O)C(CCCNC(=O)c4ccc5c(O)ccnc5c4)Cc4ccccc4)CC3)cnc2c1` (centres unmarked), the IC50 is over 1000 nM.

For `C=CC(=O)Nc1ccccc1-c1cn([C@@H](Cc2ccccc2)C(=O)N2CCC(O)(Cn3cnc4cc(NC(=O)CCN5CCOCC5)ccc4c3=O)CC2)nn1`, the IC50 was over 1000 nM. `C=CC(=O)Nc1cccc(-c2cn([C@@H](Cc3ccccc3)C(=O)N3CCC(O)(Cn4cnc5cc(NC(=O)CCN6CCOCC6)ccc5c4=O)CC3)nn2)c1`: the IC50 is over 1000 nM.

For the compound `CN1CCN(CCC(=O)Nc2ccc3c(=O)n(CC4(O)CCN(C(=O)C(CCCNC(=O)c5ccc6c(Cl)cc(C7CCCCC7)nc6c5)Cc5ccccc5)CC4)cnc3c2)CC1` (centres unmarked), the IC50 lay in the range of 20 to 100 nM.

For the compound `CN1CCN(CCC(=O)Nc2ccc3c(=O)n(CC4(O)CCN(C(=O)C(CCCNC(=O)c5ccc6c(Cl)cc(-c7cscn7)nc6c5)Cc5ccccc5)CC4)cnc3c2)CC1` (centres unmarked), the IC50 lay within 20 to 100 nM. Take `CN1CCN(CCC(=O)Nc2ccc3c(=O)n(CC4(O)CCN(C(=O)C(CCCNC(=O)c5ccc6c(Cl)cc(-c7ccc(F)cc7)nc6c5)Cc5ccccc5)CC4)cnc3c2)CC1` (centres unmarked): the IC50 is 20 to 100 nM.

The values above are taken from patent US12503453B2, “USP7 inhibition” (Dana-Farber Cancer Institute, Inc., priority 2018, dated 2025).
